This passage reports mutagenic call results from PubChem BioAssay AID1259407 (Chemical Carcinogenesis Research Information System (CCRIS), 2018).

The data set relates to CCRIS mutagenicity, Ames/micronucleus/aberration tests. Description: CCRIS mutagenicity studies.
[1] abbreviates: Test System: AMES SALMONELLA TYPHIMURIUM, Strain/Indicator: TA102, Metabolic Activation: NONE, Method: PREINCUBATION
The mark [2] stands for this setting: Test System: AMES SALMONELLA TYPHIMURIUM, Strain/Indicator: TA1535, Metabolic Activation: NONE, Method: PREINCUBATION
The mark [3] stands for this setting: Test System: AMES SALMONELLA TYPHIMURIUM, Strain/Indicator: TA1535, Metabolic Activation: NONE, Method: STANDARD PLATE.
The mark [4] stands for this setting: Test System: AMES SALMONELLA TYPHIMURIUM, Strain/Indicator: TA1537, Metabolic Activation: NONE, Method: PREINCUBATION
The mark [5] stands for this setting: Test System: AMES SALMONELLA TYPHIMURIUM, Strain/Indicator: TA98, Metabolic Activation: NONE, Method: PREINCUBATION
Where [6] appears, read: Test System: AMES SALMONELLA TYPHIMURIUM, Strain/Indicator: TA100, Metabolic Activation: HAMSTER, LIVER, S-9, AROCLOR 1254 (10%), Method: PREINCUBATION
Setting [7] is: Test System: AMES SALMONELLA TYPHIMURIUM, Strain/Indicator: TA100, Metabolic Activation: NONE, Method: PREINCUBATION

Active and inactive are the calls of the source. The rule behind the calls is not given here.

`CNNC`: the mutagenic call is, setting by setting: under setting [1], “inactive; negative”; (Test System: AMES SALMONELLA TYPHIMURIUM, Strain/Indicator: TA102, Metabolic Activation: NONE, Method: STANDARD PLATE) “inactive; negative”; under setting [2], “inactive; negative”; under setting [3], “inactive; negative”; (Test System: AMES SALMONELLA TYPHIMURIUM, Strain/Indicator: TA1535, Metabolic Activation: RAT, LIVER, S-9, AROCLOR 1254, Method: PREINCUBATION) “inactive; negative”; under setting [4], “inactive; negative”. Also, the mutagenic call is, setting by setting: (Test System: AMES SALMONELLA TYPHIMURIUM, Strain/Indicator: TA1537, Metabolic Activation: RAT, LIVER, S-9, AROCLOR 1254, Method: PREINCUBATION) “inactive; negative”; (Test System: AMES SALMONELLA TYPHIMURIUM, Strain/Indicator: TA2638, Metabolic Activation: NONE, Method: STANDARD PLATE) “active; positive”; (Test System: AMES SALMONELLA TYPHIMURIUM, Strain/Indicator: YG7108, Metabolic Activation: NONE, Method: STANDARD PLATE) “active; positive”; (Test System: E. COLI, Strain/Indicator: WP2 (PKM101), Metabolic Activation: NONE, Method: STANDARD PLATE) “active; positive”; (Test System: E. COLI, Strain/Indicator: WP2 UVRA (PKM101), Metabolic Activation: NONE, Method: STANDARD PLATE) “active; positive”.

In the case of `Fc1ccccc1-c1ccccc1`, the mutagenic call was “inactive; negative” (Test System: AMES SALMONELLA TYPHIMURIUM, Strain/Indicator: TA98, Metabolic Activation: HAMSTER, LIVER, S-9, AROCLOR 1254, Method: STANDARD PLATE); “inactive; negative” (Test System: AMES SALMONELLA TYPHIMURIUM, Strain/Indicator: TA98, Metabolic Activation: NONE, Method: STANDARD PLATE); “inactive; negative” (Test System: AMES SALMONELLA TYPHIMURIUM, Strain/Indicator: TA98, Metabolic Activation: RAT, LIVER, S-9, AROCLOR 1254, Method: STANDARD PLATE); “inactive; negative” (Test System: AMES SALMONELLA TYPHIMURIUM, Strain/Indicator: TA100, Metabolic Activation: HAMSTER, LIVER, S-9, AROCLOR 1254, Method: STANDARD PLATE); “inactive; negative” (Test System: AMES SALMONELLA TYPHIMURIUM, Strain/Indicator: TA100, Metabolic Activation: NONE, Method: STANDARD PLATE); “inactive; negative” (Test System: AMES SALMONELLA TYPHIMURIUM, Strain/Indicator: TA100, Metabolic Activation: RAT, LIVER, S-9, AROCLOR 1254, Method: STANDARD PLATE). Further, the mutagenic call is, setting by setting: (Test System: AMES SALMONELLA TYPHIMURIUM, Strain/Indicator: TA1535, Metabolic Activation: HAMSTER, LIVER, S-9, AROCLOR 1254, Method: STANDARD PLATE) “inactive; negative”; under setting [3], “inactive; negative”; (Test System: AMES SALMONELLA TYPHIMURIUM, Strain/Indicator: TA1535, Metabolic Activation: RAT, LIVER, S-9, AROCLOR 1254, Method: STANDARD PLATE) “inactive; negative”; (Test System: AMES SALMONELLA TYPHIMURIUM, Strain/Indicator: TA1537, Metabolic Activation: HAMSTER, LIVER, S-9, AROCLOR 1254, Method: STANDARD PLATE) “inactive; negative”; (Test System: AMES SALMONELLA TYPHIMURIUM, Strain/Indicator: TA1537, Metabolic Activation: NONE, Method: STANDARD PLATE) “inactive; negative”; (Test System: AMES SALMONELLA TYPHIMURIUM, Strain/Indicator: TA1537, Metabolic Activation: RAT, LIVER, S-9, AROCLOR 1254, Method: STANDARD PLATE) “inactive; negative”. Besides, the mutagenic call reads like this: (Test System: AMES SALMONELLA TYPHIMURIUM, Strain/Indicator: TA1538, Metabolic Activation: HAMSTER, LIVER, S-9, AROCLOR 1254, Method: STANDARD PLATE) “inactive; negative”; (Test System: AMES SALMONELLA TYPHIMURIUM, Strain/Indicator: TA1538, Metabolic Activation: NONE, Method: STANDARD PLATE) “inactive; negative”; (Test System: AMES SALMONELLA TYPHIMURIUM, Strain/Indicator: TA1538, Metabolic Activation: RAT, LIVER, S-9, AROCLOR 1254, Method: STANDARD PLATE) “inactive; negative”; (Test System: Mouse lymphoma, Strain/Indicator: L5178Y (tk+/tk-), Metabolic Activation: None, Method: Suspension/plate) “inactive; negative”; (Test System: Mouse lymphoma, Strain/Indicator: L5178Y (tk+/tk-), Metabolic Activation: Rat, Liver, S-9, Aroclor 1254, Method: Suspension/plate) “inactive; negative”.

Consider `O=c1[nH]c(=O)n(Cl)c(=O)n1Cl`, for which the mutagenic call (Test System: AMES SALMONELLA TYPHIMURIUM, Strain/Indicator: TA98, Metabolic Activation: HAMSTER, LIVER, S-9, AROCLOR 1254 (10%), Method: PREINCUBATION) was “inactive; negative”; the mutagenic call under setting [5] was “inactive; negative”; the mutagenic call (Test System: AMES SALMONELLA TYPHIMURIUM, Strain/Indicator: TA98, Metabolic Activation: RAT, LIVER, S-9, AROCLOR 1254 (10%), Method: PREINCUBATION) is “inactive; negative”; the mutagenic call under setting [6] is “inactive; negative”; the mutagenic call under setting [7] was “inactive; negative”; the mutagenic call (Test System: AMES SALMONELLA TYPHIMURIUM, Strain/Indicator: TA100, Metabolic Activation: RAT, LIVER, S-9, AROCLOR 1254 (10%), Method: PREINCUBATION) was “inactive; negative”. Moreover, the mutagenic call was “inactive; negative” (Test System: AMES SALMONELLA TYPHIMURIUM, Strain/Indicator: TA1535, Metabolic Activation: HAMSTER, LIVER, S-9, AROCLOR 1254 (10%), Method: PREINCUBATION); “inactive; negative” under setting [2]; “inactive; negative” (Test System: AMES SALMONELLA TYPHIMURIUM, Strain/Indicator: TA1535, Metabolic Activation: RAT, LIVER, S-9, AROCLOR 1254 (10%), Method: PREINCUBATION); “inactive; negative” (Test System: AMES SALMONELLA TYPHIMURIUM, Strain/Indicator: TA1537, Metabolic Activation: HAMSTER, LIVER, S-9, AROCLOR 1254 (10%), Method: PREINCUBATION); “inactive; negative” under setting [4]; “inactive; negative” (Test System: AMES SALMONELLA TYPHIMURIUM, Strain/Indicator: TA1537, Metabolic Activation: RAT, LIVER, S-9, AROCLOR 1254 (10%), Method: PREINCUBATION).

Take `COS(=O)(=O)C(F)(F)F`: the mutagenic call by setting is: under setting [6], “active; positive”; (Test System: MOUSE LYMPHOMA, Strain/Indicator: L5178Y (TK+/TK-), Metabolic Activation: NONE, Method: SUSPENSION/PLATE) “active; positive. reevaluation of results: positive”; (Test System: MOUSE LYMPHOMA, Strain/Indicator: L5178Y (TK+/TK-), Metabolic Activation: RAT, LIVER, S-9, AROCLOR 1254, Method: SUSPENSION/PLATE) “active; positive. reevaluation of results: positive”.

For the compound `O=C(O)C(=O)C(=O)O`, the mutagenic call by setting is: (Test System: AMES SALMONELLA TYPHIMURIUM, Strain/Indicator: TA97, Metabolic Activation: NONE, Method: PREINCUBATION) “inactive; negative”; (Test System: AMES SALMONELLA TYPHIMURIUM, Strain/Indicator: TA97, Metabolic Activation: RAT, LIVER, S-9, PHENOBARBITAL AND 5,6-BENZOFLAVONE, Method: PREINCUBATION) “inactive; negative”; under setting [5], “inactive; negative”; (Test System: AMES SALMONELLA TYPHIMURIUM, Strain/Indicator: TA98, Metabolic Activation: RAT, LIVER, S-9, PHENOBARBITAL AND 5,6-BENZOFLAVONE, Method: PREINCUBATION) “inactive; negative”; under setting [7], “inactive; negative”; (Test System: AMES SALMONELLA TYPHIMURIUM, Strain/Indicator: TA100, Metabolic Activation: RAT, LIVER, S-9, PHENOBARBITAL AND 5,6-BENZOFLAVONE, Method: PREINCUBATION) “inactive; negative”. For the same compound, the mutagenic call is “inactive; negative” under setting [1]; “inactive; negative” (Test System: AMES SALMONELLA TYPHIMURIUM, Strain/Indicator: TA102, Metabolic Activation: RAT, LIVER, S-9, PHENOBARBITAL AND 5,6-BENZOFLAVONE, Method: PREINCUBATION); “inactive; negative” (Test System: AMES SALMONELLA TYPHIMURIUM, Strain/Indicator: TA104, Metabolic Activation: NONE, Method: PREINCUBATION); “inactive; negative” (Test System: AMES SALMONELLA TYPHIMURIUM, Strain/Indicator: TA104, Metabolic Activation: RAT, LIVER, S-9, PHENOBARBITAL AND 5,6-BENZOFLAVONE, Method: PREINCUBATION).
